Results on one molecule are retold here after BindingDB's records for doi:10.1016/j.bmc.2005.05.065 (National Taiwan University, 2005).

This assay addresses Replicase polyprotein 1ab (Severe acute respiratory syndrome coronavirus, UniProt P0C6X7). Nature of the assay: SARS-CoV 3CL Protease Inhibition Assay. The conditions noted are these: pH 7; 25 °C. Here is the method: The effects of compound on enzyme activity were measured by using a fluorogenic peptide cleavage assay. Enhanced fluorescence caused by cleavage of the substrate peptide was monitored at 538 nm with excitation at 355 nm. The Ki measurements were performed at two fixed inhibitor concentrations and various substrate concentrations.

In turn, `CCOC(=O)/C=C/[C@H](C[C@@H]1CCNC1=O)NC(=O)[C@@H](CC(=O)[C@@H](NC(=O)c1cc(C)on1)C(C)C)Cc1ccc(F)cc1` [ethyl (2E,4S)-4-[((2R,5S)-2-(4-fluorobenzyl)-6-methyl-5-{[(5-methylisoxazol-3-yl)carbonyl]amino}-4-oxoheptanoyl)amino]-5-[(3S)-2-oxopyrrolidin-3-yl]pent-2-enoate] yielded an IC50 greater than 100 µM.
